The record followed here is ChEMBL document CHEMBL2417440, “Experimental and structural testing module to analyze paralogue-specificity and affinity in the Hsp90 inhibitors series” (J Med Chem, 2013).

Calls of active or inactive are those of the source. No cut-off for these calls is given here.

The target of experiment [1] is T1, Endoplasmin (Canis lupus familiaris, UniProt P41148). As to the kind of experiment: Binding affinity to dog Grp94 by fluorescence polarization assay. Conditions: read-out: Kd(app). On the technique in general: Fluorescence polarisation rises when a labelled molecule tumbles more slowly, as on binding a larger partner.
T1 sequence (P41148 whole entry): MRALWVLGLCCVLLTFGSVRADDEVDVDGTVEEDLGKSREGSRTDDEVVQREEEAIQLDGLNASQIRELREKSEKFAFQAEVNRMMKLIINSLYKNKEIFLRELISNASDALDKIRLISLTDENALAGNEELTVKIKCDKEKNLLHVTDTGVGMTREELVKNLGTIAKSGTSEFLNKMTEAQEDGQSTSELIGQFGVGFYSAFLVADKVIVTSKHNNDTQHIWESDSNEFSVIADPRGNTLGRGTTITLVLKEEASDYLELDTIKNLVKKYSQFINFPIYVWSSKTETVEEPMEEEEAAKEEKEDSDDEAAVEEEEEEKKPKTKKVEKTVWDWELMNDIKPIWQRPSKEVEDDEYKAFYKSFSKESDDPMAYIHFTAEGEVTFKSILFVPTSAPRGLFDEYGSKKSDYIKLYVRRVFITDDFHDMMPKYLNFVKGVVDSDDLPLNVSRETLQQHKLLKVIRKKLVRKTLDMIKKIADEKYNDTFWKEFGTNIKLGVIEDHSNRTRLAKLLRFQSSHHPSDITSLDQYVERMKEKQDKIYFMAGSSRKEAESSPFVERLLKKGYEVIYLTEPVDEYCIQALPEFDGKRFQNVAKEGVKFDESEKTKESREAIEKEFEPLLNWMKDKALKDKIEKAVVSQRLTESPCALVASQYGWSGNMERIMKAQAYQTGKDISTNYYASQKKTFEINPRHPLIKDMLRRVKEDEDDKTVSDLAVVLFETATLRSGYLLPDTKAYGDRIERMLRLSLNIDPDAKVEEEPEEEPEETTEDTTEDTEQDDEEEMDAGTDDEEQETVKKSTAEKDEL
The target in experiment [2] is T2, Heat shock protein HSP 90-beta (Homo sapiens, UniProt P08238). Kind of experiment: Binding affinity to recombinant HSP90beta (unknown origin) by fluorescence polarization assay. Conditions: read-out: Kd(app).
T2 sequence (P08238 whole entry): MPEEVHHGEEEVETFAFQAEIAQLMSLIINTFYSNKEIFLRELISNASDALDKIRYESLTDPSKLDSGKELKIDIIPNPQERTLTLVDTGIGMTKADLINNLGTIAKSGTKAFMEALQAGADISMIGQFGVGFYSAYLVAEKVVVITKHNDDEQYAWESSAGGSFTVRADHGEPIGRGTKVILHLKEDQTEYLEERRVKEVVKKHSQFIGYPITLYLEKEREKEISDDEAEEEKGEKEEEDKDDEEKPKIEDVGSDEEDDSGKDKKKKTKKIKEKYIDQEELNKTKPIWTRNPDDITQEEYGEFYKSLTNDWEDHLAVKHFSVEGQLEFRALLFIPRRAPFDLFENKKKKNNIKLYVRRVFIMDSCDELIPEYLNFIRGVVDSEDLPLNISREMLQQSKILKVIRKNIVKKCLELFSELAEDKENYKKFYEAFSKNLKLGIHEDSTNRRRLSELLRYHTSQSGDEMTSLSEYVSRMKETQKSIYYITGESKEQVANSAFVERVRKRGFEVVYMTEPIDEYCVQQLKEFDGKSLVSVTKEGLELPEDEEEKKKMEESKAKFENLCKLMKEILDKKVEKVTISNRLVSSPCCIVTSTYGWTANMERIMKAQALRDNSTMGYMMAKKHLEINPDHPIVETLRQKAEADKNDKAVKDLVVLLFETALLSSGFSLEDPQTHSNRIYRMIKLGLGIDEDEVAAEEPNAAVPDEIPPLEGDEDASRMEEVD
For experiment [3], the target named is T3, Heat shock protein HSP 90-alpha (Homo sapiens, UniProt P07900). As to the kind of experiment: Binding affinity to HSP90alpha (unknown origin) by fluorescence polarization assay. Conditions: read-out: Kd(app).
For experiment [4], the target named is T4, Heat shock protein HSP90 (Homo sapiens) (UniProt P07900+P08238). Kind of experiment: Binding affinity to HSP90 in human SKBR3 cell lysates at 3 nM up to 24 hrs by fluorescence polarization assay. The experiment is classed as protein assay. Conditions: SK-BR-3.
Experiment [5] has as its target T5, Heat shock protein 75 kDa, mitochondrial (Homo sapiens, UniProt Q12931).
T5 sequence (Q12931 whole entry): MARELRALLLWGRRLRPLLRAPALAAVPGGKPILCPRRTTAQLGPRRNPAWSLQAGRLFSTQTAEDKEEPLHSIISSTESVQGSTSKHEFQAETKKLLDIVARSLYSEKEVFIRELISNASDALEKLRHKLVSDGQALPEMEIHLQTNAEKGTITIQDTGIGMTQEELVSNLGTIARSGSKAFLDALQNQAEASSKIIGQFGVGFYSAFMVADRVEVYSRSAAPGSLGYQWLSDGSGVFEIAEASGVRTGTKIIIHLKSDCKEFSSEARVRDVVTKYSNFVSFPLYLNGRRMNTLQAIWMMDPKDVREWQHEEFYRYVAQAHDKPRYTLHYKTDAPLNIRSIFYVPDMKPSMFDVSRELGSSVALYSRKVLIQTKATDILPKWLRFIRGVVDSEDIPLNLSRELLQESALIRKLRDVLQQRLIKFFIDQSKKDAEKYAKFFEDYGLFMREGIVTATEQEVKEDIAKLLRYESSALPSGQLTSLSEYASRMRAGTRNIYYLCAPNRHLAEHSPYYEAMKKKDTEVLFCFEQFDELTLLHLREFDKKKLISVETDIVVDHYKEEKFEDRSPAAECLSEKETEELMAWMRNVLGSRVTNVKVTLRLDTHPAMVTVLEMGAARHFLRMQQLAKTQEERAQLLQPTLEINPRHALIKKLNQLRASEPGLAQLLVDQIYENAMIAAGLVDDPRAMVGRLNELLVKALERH
Description: Binding affinity to recombinant human Trap-1 by fluorescence polarization assay

Experiment [6] has as its target T4, Heat shock protein HSP90 (Homo sapiens). Kind of experiment: Binding affinity to HSP90 in human SKBR3 cell lysates at 3 nM after 8 hrs by fluorescence polarization assay. Conditions: SK-BR-3. The class given is protein assay.
Experiment [7] addresses Endoplasmin (Homo sapiens) (UniProt P14625). Kind of experiment: Binding affinity to GRP94 (unknown origin).
For experiment [8], the target named is T2, Heat shock protein HSP 90-beta. Kind of experiment: Binding affinity to HSP90beta (unknown origin).
The target in experiment [9] is T3, Heat shock protein HSP 90-alpha. Kind of experiment: Binding affinity to HSP90alpha (unknown origin).
Experiment [10] addresses T4, Heat shock protein HSP90 (Homo sapiens). As to the kind of experiment: Binding affinity to HSP90 (unknown origin). The class given is protein assay.
The target of experiment [11] is T5, Heat shock protein 75 kDa, mitochondrial. This is another data set of the same source.
Experiment [12] addresses T1, Endoplasmin.
Experiment [13] addresses T2, Heat shock protein HSP 90-beta.
Experiment [14] deals with T3, Heat shock protein HSP 90-alpha.
Experiment [15] addresses T6, Heat shock protein 75 kDa, mitochondrial (Homo sapiens) (UniProt Q12931).
T6 sequence (whole entry): T5 sequence (Q12931 whole entry)
Kind of experiment: Binding affinity to TRAP1 (unknown origin).

For another experiment, the species on record is Homo sapiens. Kind of experiment: Ratio of binding affinity to HASP90 (unknown origin) to TRAP1 (unknown origin).

Sequence of Endoplasmin (Homo sapiens) (P14625 whole entry): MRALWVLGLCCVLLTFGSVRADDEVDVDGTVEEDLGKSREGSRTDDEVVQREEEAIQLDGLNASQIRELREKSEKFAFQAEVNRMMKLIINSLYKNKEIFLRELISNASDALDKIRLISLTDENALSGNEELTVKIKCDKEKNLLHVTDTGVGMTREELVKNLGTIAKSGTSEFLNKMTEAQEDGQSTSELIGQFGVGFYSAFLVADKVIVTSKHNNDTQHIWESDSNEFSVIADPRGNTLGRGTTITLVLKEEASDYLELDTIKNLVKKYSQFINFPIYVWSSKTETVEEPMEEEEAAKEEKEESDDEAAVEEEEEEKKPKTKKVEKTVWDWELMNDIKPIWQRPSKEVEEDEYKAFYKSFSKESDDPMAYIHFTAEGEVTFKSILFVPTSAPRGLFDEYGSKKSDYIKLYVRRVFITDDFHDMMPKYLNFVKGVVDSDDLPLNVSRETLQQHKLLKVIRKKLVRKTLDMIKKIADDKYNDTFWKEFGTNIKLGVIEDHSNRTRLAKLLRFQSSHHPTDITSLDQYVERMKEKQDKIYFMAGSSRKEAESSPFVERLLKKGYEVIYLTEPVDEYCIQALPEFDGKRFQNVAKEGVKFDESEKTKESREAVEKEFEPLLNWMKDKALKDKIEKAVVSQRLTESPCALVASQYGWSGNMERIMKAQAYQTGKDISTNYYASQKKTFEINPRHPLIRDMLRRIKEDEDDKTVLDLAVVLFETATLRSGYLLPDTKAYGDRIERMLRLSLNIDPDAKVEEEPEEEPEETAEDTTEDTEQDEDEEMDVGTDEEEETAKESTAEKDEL

For the compound `CC(C)N(CCCn1c(Sc2cc3c(cc2I)OCO3)nc2c(N)ncnc21)C(=S)Nc1ccc(-c2c3ccc(=O)cc-3oc3cc(O)ccc23)c(C(=O)O)c1`, the Kd was 30.7 nM at Endoplasmin [1], 2.8 nM in experiment [2], 3.9 nM in experiment [3] and 5.8 nM in experiment [5]. Also, in experiment [4], the result was Active.
In the case of `CO[C@H]1/C=C\C=C(/C)C(=O)NC2=CC(=O)C(NCCCCNC(=O)Cc3ccc4c(c3)C(C)(C)C3=[N+]4CCC4OC5CCN6C(=C5C=C34)C(C)(C)c3cc(S(=O)(=O)[O-])ccc36)=C(C[C@@H](C)C[C@H](OC)[C@H](O)[C@@H](C)/C=C(\C)[C@@H]1OC(N)=O)C2=O` (stereo partly specified), the Kd on Endoplasmin [1] was found to be 2.5 nM; in [2], 2.2 nM; in experiment [3], 0.7 nM; in experiment [5] it was 51.8 nM.
Take `Nc1ncnc2c1nc(Sc1cc3c(cc1I)OCO3)n2CCCNC(=S)Nc1ccc(-c2c3ccc(=O)cc-3oc3cc(O)ccc23)c(C(=O)O)c1`: the Kd at Endoplasmin [1] came out at 6.6 nM; in experiment [2], 1.6 nM; in experiment [3], 1.4 nM. The outcome in experiment [6] and in experiment [4] was Active.
Turning to `Nc1ncnc2c1nc(Sc1cc3c(cc1I)OCO3)n2CCCCCCCCNC(=S)Nc1ccc(-c2c3ccc(=O)cc-3oc3cc(O)ccc23)c(C(=O)O)c1`, in [4], the outcome was inactive.
Still for that read-out and setting: the same measure for `Nc1ncnc2c1nc(Sc1cc3c(cc1I)OCO3)n2CCCCCCNC(=S)Nc1ccc(-c2c3ccc(=O)cc-3oc3cc(O)ccc23)c(C(=O)O)c1`: “Active”.
The same measure, in the same setting: the same measure for `Nc1ncnc2c1nc(Sc1cc3c(cc1I)OCO3)n2CCCCNC(=S)Nc1ccc(-c2c3ccc(=O)cc-3oc3cc(O)ccc23)c(C(=O)O)c1`: “Active”.
One may read the IC50 as the midpoint of a concentration-inhibition curve. A low value points to inhibition by little substance. `Nc1ncnc2c1ncn2[C@@H]1O[C@H](COP(=O)(O)OP(=O)(O)O)[C@@H](O)[C@H]1O` [ADENOSINE DIPHOSPHATE]: the Activity in [7] is 2.3 µM; in [8] it was 34 µM; in [9], 51 µM; in experiment [10], 41 µM. Moreover, the IC50 turned out to be 55600 nM in experiment [11], 11400 nM against Endoplasmin [12], 42200 nM in experiment [13] and 59300 nM in experiment [14].
On to `Nc1ncnc2c1ncn2[C@@H]1O[C@H](COP(=O)(O)OP(=O)(O)OP(=O)(O)O)[C@@H](O)[C@H]1O` [ADENOSINE TRIPHOSPHATE], for which the Activity in [15] worked out at 31.3 µM; in experiment [7], 3.4 µM; in [10] it was 840 µM. Further, the Ratio in the experiment filed under Homo sapiens came out at 10. Besides, the IC50 in [11] is 31300 nM; at Endoplasmin [12], 3240 nM; in [13] it was 894000 nM; in experiment [14], 861000 nM.
In the case of `CC(C)c1cc(-c2n[nH]c(=O)n2-c2ccc3c(ccn3C)c2)c(O)cc1O` [GANETESPIB], at Endoplasmin [12], the IC50 amounted to 10 nM.
For `C=CCNC1=C2C[C@@H](C)C[C@H](OC)[C@H](O)[C@@H](C)/C=C(\C)[C@H](OC(N)=O)[C@@H](OC)/C=C\C=C(/C)C(=O)NC(=CC1=O)C2=O` [TANESPIMYCIN], the results for the IC50 (in experiment [11]; against Endoplasmin [12]) were 1500 nM and 31 nM, respectively.
